The text below walks through data of patent US20090143392A1, “Methods of Treating Obesity and Metabolic Disorders” (ELBION GMBH, priority 2007, published 2009).

The term IC50 denotes the point on the concentration scale where inhibition reaches its midpoint. The low end stands for greater potency, the high end for weaker potency. The term melting point denotes the temperature of the solid-liquid transition.

Bounds are passed on as bounds.

Data set [1] deals with PDE10 from guinea pig striatum (Cavia porcellus, UniProt A0A286XN47). As to the kind of experiment: Inhibition of PDE10 from guinea pig striatum. The class given is biochemical. To be noted: 0.1 μM [3H]-cAMP, 37° C., 30 minutes. How it is done: (§1) Phosphodiesterase isoenzyme 10 (PDE10) activity was determined in preparations of rat, pig and guinea pig striatum respectively. Striatum from male Wistar rats (180-200 g), male hybrid pigs (150 kg) and male guinea pigs (CRL (HA), 500 g) respectively were collected and frozen at −70° C.
(§2) For the enzymatic testing of PDE10 activity 0.5 g of the isolated and frozen striatum was homogenised in 10 ml 50 mM Tris/Mg-buffer at 4° C. and centrifuged for one hour at 100000 g.
(§3) Nonspecific activity was tested without the enzyme. […] For determination of IC50 values the Hill-plot, 2-parameter-model, was used.

The target in the next data set is T1, PDE10 from pig striatum (Sus scrofa, UniProt A0A287B941).
T1 construct: "Striatum from male hybrid pigs (150 kg)"
The data set is described as follows: Inhibition of PDE10 from pig striatum. The class given is biochemical. To be noted: 0.1 μM [3H]-cAMP, 37° C., 30 minutes. The procedure: Phosphodiesterase isoenzyme 10 (PDE10) activity was determined in preparations of human recombinant PDE10A and PDE10 from pig striatum, respectively.
Striatum from male hybrid pigs (150 kg) were collected and frozen at −70° C.
At the day of preparation 0.5 g striatum was homogenised in 10 ml 50 mM Tris/Mg-buffer at 4° C. and centrifuged for one hour at 100000 g.
as §3, §1, §2

The test system of data set [2] is dopamine concentration in rat brain. The following applies: cited from earlier work.
Data set [3] has as its system haloperidol-induced catalepsy. To be noted: rats; cited from earlier work.
The test system of data set [4] is apomorphine-induced stereotypies. To be noted: rats; cited from earlier work.
A further data set deals with MK-801-induced psychosis. The data set is described as follows: MK-801-induced psychosis: hyperactivity and stereotyped sniffing. To be noted: female Wistar rats, MK-801 0.1 mg/kg i.p. 10 min before test, compound 30 min prior, recorded 1 h; for dose that significantly reversed MK-801-induced hyperactivity / dose that significantly reversed MK-801-induced stereotyped sniffing: p.o. The class given is in vivo. The procedure:
Female Wistar rats (Crl: (WI) BR, Charles River, Sulzfeld, Germany) weighing 150 to 180 g were used for the MK-801-induced psychosis. Animals were housed under standard conditions in groups of five on a 12 h light/dark cycle (light on at 0600 h) with ad libitum access to food (Pellets, ssniff M/R 15, Spezialdiät GmbH, Soest/Westfalen) and water.
MK-801 (dizocilpine, MW 337.37) was obtained by Tocris, distributed by Biotrend Chemikalien GmbH, Köln, Germany.
Hydroxyethylcellulose was solved in distilled water.
MK-801 was solved in saline so that an administration volume of 0.5 ml/100 g was reached. The suspensions and solution were placed on a magnetic stirrer before and during dosing procedures.
The behaviour induced by the NMDA antagonist MK-801 is generally accepted as a rat model of psychosis. MK-801 induces stereotyped sniffing, hyperactivity and ataxia in rats after intraperitoneal administration.
Locomotor activity of the rats was recorded by the MotiTest Apparatus (TSE, Bad Homburg, Germany). The test area consisted of a squared arena (45×45 cm) with protective plexiglass walls (20 cm of height) where rats could freely move. Horizontal movements were recorded by 32 infrared photocells arranged along the bottom of each wall of the arena. The activity [sec] was measured by the computer program “ActiMot” (TSE, Bad Homburg, Germany).
Stereotyped sniffing was scored by the experimenter every five minutes for one hour (12 intervals) according to the method described by Andine et al. (1999). The scores of the 12 intervals were summed up at the end of the recording time.
The day of experiment the female rats were placed in the laboratory and received the test compound or vehicle at the appropriate time prior to test. MK-801 0.1 mg/kg was intraperitoneally administered 10 minutes prior to test.
At the beginning of the test the rats were placed in the centre of the squared arena of the MotiTest apparatus. Behaviour of the rats was recorded for one hour. After each run animals were removed and the boxes thoroughly cleaned and dried.
Results were analysed by one way analysis of variance (ANOVA). Tukey test was used for individual comparison. P<0.05 was regarded as significant.

For a further data set, the target named is T2, PDE10 from rat striatum (Rattus norvegicus, UniProt Q9QYJ6).
T2 construct: 0.5 g of the isolated and frozen striatum was homogenised; from tissue; host or cells: rat striatum, ion-exchange FPLC fractions with PDE10 activity
T2 sequence (Q9QYJ6 1-794): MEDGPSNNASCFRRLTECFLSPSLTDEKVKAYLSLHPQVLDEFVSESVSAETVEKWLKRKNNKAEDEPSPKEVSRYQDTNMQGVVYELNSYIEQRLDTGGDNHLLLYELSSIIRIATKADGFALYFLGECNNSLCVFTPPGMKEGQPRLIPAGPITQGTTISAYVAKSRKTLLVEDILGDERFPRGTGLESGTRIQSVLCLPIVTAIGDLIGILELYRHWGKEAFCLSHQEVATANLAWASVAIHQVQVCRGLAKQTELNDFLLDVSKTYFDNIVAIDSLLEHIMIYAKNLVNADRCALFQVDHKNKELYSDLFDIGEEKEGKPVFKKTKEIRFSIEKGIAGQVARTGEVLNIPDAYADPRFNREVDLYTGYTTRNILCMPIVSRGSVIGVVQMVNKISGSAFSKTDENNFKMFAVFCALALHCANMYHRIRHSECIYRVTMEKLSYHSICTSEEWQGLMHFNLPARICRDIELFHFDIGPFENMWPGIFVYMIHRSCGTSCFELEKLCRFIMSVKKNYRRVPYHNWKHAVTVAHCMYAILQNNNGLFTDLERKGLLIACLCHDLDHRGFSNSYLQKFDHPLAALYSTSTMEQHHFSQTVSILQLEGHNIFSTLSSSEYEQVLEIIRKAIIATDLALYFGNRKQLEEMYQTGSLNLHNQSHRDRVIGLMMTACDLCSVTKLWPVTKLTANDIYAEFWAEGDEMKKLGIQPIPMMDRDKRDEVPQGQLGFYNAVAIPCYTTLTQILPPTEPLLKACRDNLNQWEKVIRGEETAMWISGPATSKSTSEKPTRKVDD
As to the kind of experiment: Inhibition of PDE10 from rat striatum. To be noted: 0.1 μM [3H]-cAMP, 37° C., 30 minutes. The class given is biochemical. How it is done:
as §1, §2, §3

Sequence of PDE10 from guinea pig striatum (A0A286XN47 1-773): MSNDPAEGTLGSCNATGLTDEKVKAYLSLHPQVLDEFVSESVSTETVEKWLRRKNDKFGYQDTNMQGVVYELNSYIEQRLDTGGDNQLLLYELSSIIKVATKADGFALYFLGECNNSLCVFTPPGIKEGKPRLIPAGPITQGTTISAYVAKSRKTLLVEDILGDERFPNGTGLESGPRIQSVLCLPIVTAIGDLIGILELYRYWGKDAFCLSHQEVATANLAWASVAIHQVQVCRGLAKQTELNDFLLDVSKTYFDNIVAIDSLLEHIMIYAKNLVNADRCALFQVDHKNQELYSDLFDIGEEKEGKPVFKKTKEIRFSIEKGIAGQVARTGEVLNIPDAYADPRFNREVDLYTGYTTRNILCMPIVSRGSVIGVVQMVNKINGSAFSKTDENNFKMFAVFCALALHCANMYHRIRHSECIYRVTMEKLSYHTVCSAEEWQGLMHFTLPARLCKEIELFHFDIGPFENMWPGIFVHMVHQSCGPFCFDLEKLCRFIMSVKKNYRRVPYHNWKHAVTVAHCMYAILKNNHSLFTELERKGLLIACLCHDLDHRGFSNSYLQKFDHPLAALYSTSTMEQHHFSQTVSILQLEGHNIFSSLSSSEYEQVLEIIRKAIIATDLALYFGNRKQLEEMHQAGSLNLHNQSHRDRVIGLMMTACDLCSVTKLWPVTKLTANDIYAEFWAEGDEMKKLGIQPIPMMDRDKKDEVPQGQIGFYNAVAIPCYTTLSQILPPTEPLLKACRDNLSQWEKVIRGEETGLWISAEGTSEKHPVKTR

For the molecule “3,4-dimethyl-8-(2-propyl-4-methyl-imidazol-1-yl)-methoxy-1-propyl-imidazo[1,5-a]pyrido[3,2-e]pyrazine [Example 58a]”, the IC50 in data set [1] came to 4 nM; at PDE10 from pig striatum, 2 nM.
Turning to “3,4-dimethyl-8-methoxy-1-phenyl-imidazo[1,5-a]pyrido[3,2-e]pyrazine [Example 47a]”, the IC50 in data set [1] came to 15 nM; at PDE10 from pig striatum, 6 nM.
For the molecule `COc1ccc(Cc2nccc3cc(OC)c(OC)cc23)cc1OC` [Papaverine], the “effect on dopamine concentration in rat brain” value in data set [2] was “reducing dopamine concentration in rat brain”. The “effect on haloperidol-induced catalepsy” value in data set [3] was “increases haloperidol-induced catalepsy”. The “effect on apomorphine-induced stereotypies” value in data set [4] was “reduces apomorphine-induced stereotypies”.
As to “4-cyano-8-methoxy-3-methyl-1-ethyl-imidazo[1,5-a]pyrido[3,2-e]pyrazine [Example 30a]”, in the data set on MK-801-induced psychosis, the “dose that significantly reversed MK-801-induced hyperactivity” value was at least 10 mg/kg. Moreover, the “dose that significantly reversed MK-801-induced stereotyped sniffing” value in the data set with MK-801-induced psychosis is at least 10 mg/kg. In addition, the IC50 in data set [1] came to 51 nM; against PDE10 from pig striatum it was 20 nM.
The molecule `CCCc1nc(C)c2n1-c1nc(OC)ccc1NC2` [Example 91a, 8-methoxy-3-methyl-1-propyl-4,5-dihydro-imidazo[1,5-a]pyrido[3,2-e]pyrazine] registered a melting point of 157 to 160 °C. Besides, in the data set with MK-801-induced psychosis (i.p.), the “dose that significantly reduced MK-801-induced hyperactivity” value is on record as at least 15 mg/kg and the “dose that significantly reduced MK-801-induced stereotyped sniffing” value is given as at least 15 mg/kg. In addition, the IC50 against PDE10 from rat striatum is 159 nM. Inhibition at PDE10 from pig striatum was half-maximal at 108 nM (IC50).
Take `CCCc1nc(C)c2n1-c1nc(OC)ccc1N(C(C)=O)C2` [Example 95a, 5-acetyl-8-methoxy-3-methyl-1-propyl-4,5-dihydro-imidazo[1,5-a]pyrido[3,2-e]pyrazine]: in the data set with MK-801-induced psychosis, the “dose that significantly reversed MK-801-induced hyperactivity” value is 30 mg/kg and the “dose that significantly reversed MK-801-induced stereotyped sniffing” value was found to be 30 mg/kg. This molecule yielded a half-maximal inhibitory concentration (IC50) at PDE10 from rat striatum of 335 nM. On PDE10 from pig striatum, this molecule came in with an IC50 of 222 nM.
`CCc1nc(C)c2c(Cl)nc3cccnc3n12` [Intermediate A11]: the melting point was 117 to 120 °C. On PDE10 from rat striatum, this molecule returned an IC50 of 171 nM. Also, the IC50 against PDE10 from pig striatum came to 97 nM.
Regarding “8-methoxy-4-methoxycarbonylamino-3-methyl-1-propyl-imidazo[1,5-a]pyrido[3,2-e]pyrazine [Example 62a]”, the “dose that significantly reversed MK-801-induced hyperactivity” value with MK-801-induced psychosis was found to be 5 mg/kg. Besides, the “dose that significantly reversed MK-801-induced stereotyped sniffing” value in the data set on MK-801-induced psychosis came to 5 mg/kg. For the same molecule, the results for the IC50 (in data set [1]; at PDE10 from rat striatum; against PDE10 from pig striatum) were 26 nM, 35 nM and 6 nM, respectively.
As for “8-methoxy-3-methyl-4-methylsulfonylamino-1-propyl-imidazo[1,5-a]pyrido[3,2-e]pyrazine [Example 69a]”, the figures for the IC50 (in data set [1]; against PDE10 from rat striatum; on PDE10 from pig striatum) were 11 nM, 11 nM and 5 nM, respectively.
For the molecule “8-methoxy-3-methyl-1-propyl-imidazo[1,5-a]pyrido[3,2-e]pyrazine [Example 35a]”, in the data set on MK-801-induced psychosis, the “dose that significantly reversed MK-801-induced hyperactivity” value is recorded as 30 mg/kg. Besides, the “dose that significantly reversed MK-801-induced stereotyped sniffing” value in the data set with MK-801-induced psychosis is at least 30 mg/kg. Also, the IC50 against PDE10 from rat striatum is 61 nM; at PDE10 from pig striatum, 40 nM.
For the molecule “4-cyano-8-methoxy-3-methyl-1-propyl-imidazo[1,5-a]pyrido[3,2-e]pyrazine [Example 29a]”, in the data set on MK-801-induced psychosis, the “dose that significantly reversed MK-801-induced stereotyped sniffing” value was at least 5 mg/kg. This molecule also came in with an IC50 in data set [1] of 18 nM.
